{"source": "patent US11793779B2", "about": "“Hica for use in prophylaxis and/or treatment of a disease or condition involving degradation of cartilage and/or disruption of cartilage homeostasis and/or integrity” (Salarusta Oy, priority 2020, dated 2023)", "key": {"MMP-13": {"target": "MMP-13 (Homo sapiens, UniProt P45452)", "test": "MMP-13 catalytic activity assay (modified pro-urokinase UKcol, chromogenic substrate S-2444, A405)", "type": "biochemical", "conditions": "HICA 25 μg/ml, FIG. 2", "procedure": "This example was carried out to test the inhibition of the catalytic activity of MMP-13. MMP-13 activity was measured as described previously (Hanemaaijer, Visser et al. 1998). In brief, MMP-13 was captured from biological fluids using MMP-13-specific monoclonal antibody-coated 96-well plates. The wells were washed three times with PBS-T (phosphate buffered saline solution containing 0.05% [v/v] Tween-20) and incubated with […] assay buffer (50 mM Tris-HCl, pH 7.6. 150 mM NaCl, 5 mM CaCl2, 1 μM ZnCl2 and 0.01% [v/v] Brij-35), to which 15 μl (50 μg/ml) modified pro-urokinase (UKcol) and 10 pl (6 mM stock) chromogenic substrate S-2444 was added. Color development was recorded by measurement of A405 using a Titertek Multiskan 8-channel photometer (Verheijen, Nieuwenbroek et al. 1997). For measurement of total activity (already active plus latent MMP-13) in biological fluid, the immobilized MMP-13 was incubated with assay buffer containing 0.5 mM APMA for 2 hr, after which UKcol and S-2444 were added and activity was recorded. (Hanemaaijer, Sier et al. 1999)\nThe protocol for this experiment: MMP-13 was activated with […] of APMA (p-aminophenylmercuric acetate, obtained from Sigma-Aldrich #A9563), after which MMP-13 was diluted and mixed with indicated inhibitors. Solution was let to incubate 30 minutes at 37° C. […]"}, "[1]": {"system": "type II collagen C2C neoepitope", "test": "Serum type II collagen C2C neoepitope (ELISA) in 4-week double-blind study", "type": "in vivo, human", "procedure": "(§1) In order to assess the effects of HICA on type II collagen and hyaluronic acid in healthy adults in vivo a study was conducted, where fifteen healthy male athletes (age 21.3±2.8 yr) volunteered for the 4-week study with double-blind design (Table 1). They were randomized to two parallel groups. Subjects in Group 1 (n=8, age 22.8±4.6 yr, height 179±6 cm, weight 76.2±6.9 kg, fat % 14.1±3.7%) received 583.2 mg of sodium salt of HICA (corresponding 500 mg of HICA) thrice a day for 4 weeks, and those in Group 2 (n=7, age 21.3±3.0 yr, height 178±5 cm, weight 73.5±5.0 kg, fat % 11.1±3.0%) received placebo (650 mg of maltodextrin) thrice a day for the same period. The subjects and the controls received repacked substance of equal volume (1.5 ml) which they were advised to mix with liquid. The subjects and the controls kept physical training constant during the study period, and they kept training daily. Serum specimens were obtained at baseline and in the end of the treatment. Specimens were aliquoted and immediately frozen; serum was collected and frozen at −70° C.\nA kit for determination of the type II collagen C2C neoepitope was provided by Ibex Technologies (Montreal, Quebec, Canada). It was measured by means of an enzyme-linked immunosorbent assay (ELISA) (Kojima, Mwale et al. 2001). […]"}, "S-Hyaluronan": {"system": "S-Hyaluronan", "test": "Serum hyaluronan (HA-ELISA) in 4-week double-blind study", "type": "in vivo, human", "procedure": "as §1\nSerum HA was measured by Hyaluronan Enzyme-Linked Immunosorbent Assay Kit, HA-ELISA (Echelon Biosciences Inc., Salt Lake City, USA). Intra- and interassay coefficients of variation of the serum HA assay were 3.2% and 4.42% respectively. The assay range was 15-1,000 ng/ml, the intraassay CV was <4%, the interassay CV was <6%. […]"}, "[2]": {"test": "Characteristics of the subjects after four weeks on HICA", "type": "in vivo, human", "conditions": "Mean ± SD", "procedure": "as §1\nThe Analysis of Variance (ANOVA) was used to assess statistical differences between the treatment groups. Data were handled as changes between the measurements before and after the treatments. Further, paired t-test was used to compare values before and after treatments. Probabilities less than 0.05 were regarded as statistically significant. Statistical analyses were carried out using the software program Systat for Windows (Statistics, Version 9, Evanston, IL, USA, 1992). The results are presented as means±SEM."}}, "data": [{"smiles": "CC(C)CC(O)C(=O)O", "note": "(racemic) [HICA, 2-hydroxy-4-methylpentanoic acid]", "values": [{"measurement": "decreased activity of MMP-13", "setting": "MMP-13; MMP-13 concentration 1.5 ng/ml", "result": 72, "unit": "%"}, {"measurement": "decreased activity of MMP-13", "setting": "MMP-13; MMP-13 concentration 24 ng/ml", "result": 73, "unit": "%"}, {"measurement": "S-C2C after HICA", "setting": "[1]; Mean ± SEM, n=8 healthy male athletes, sodium salt of HICA corresponding 500 mg HICA thrice a day for 4 weeks, before 204 ± 14, p = 0.069 vs placebo", "result": "189 ± 10", "unit": "ng/mL"}, {"measurement": "decrease in serum C2C", "setting": "[1]; during 4-week administration of HICA, placebo 2%, p=0.069 between the groups", "result": 8, "unit": "%"}, {"measurement": "S-Hyaluronan after HICA", "setting": "S-Hyaluronan; Mean ± SEM, n=8 healthy male athletes, sodium salt of HICA corresponding 500 mg HICA thrice a day for 4 weeks, before 202 ± 56, p = 0.066 vs placebo", "result": "143 ± 19", "unit": "ng/mL"}, {"measurement": "decrease in serum HA concentration", "setting": "S-Hyaluronan; during 4-week administration of HICA, placebo 10%, p=0.066 between the groups", "result": 29, "unit": "%"}, {"measurement": "Hematocrite after HICA", "setting": "[2]; before 0.44 ± 0.02, p = n.s. vs placebo", "result": "0.45 ± 0.02"}, {"measurement": "Body Fat procent after HICA", "setting": "[2]; before 14.1 ± 3.7, p = n.s. vs placebo", "result": "14.0 ± 2.5", "unit": "%"}, {"measurement": "Weight after HICA", "setting": "[2]; before 76.2 ± 6.9, p = n.s. vs placebo", "result": "76.5 ± 8.4", "unit": "kg"}, {"measurement": "Hemoglobin after HICA", "setting": "[2]; before 152 ± 7, p = n.s. vs placebo", "result": "151 ± 5", "unit": "g/L"}]}]}
